Test results from paper PMC5449500, “Comparative Effects of Chloride Channel Inhibitors on LRRC8/VRAC-Mediated Chloride Conductance” (Frontiers in Pharmacology, 2017).
Values joined by “and” are separate entries in the source; they are usually repeats but may differ in a detail not shown here. Equal values may be shown once. “Also recorded” adds a separate entry of the source. Read-outs that look alike come from different tables or passages of the source.

How the values were obtained:
LRRC8/VRAC = biological target: T1, LRRC8/VRAC (Homo sapiens, UniProt Q8IWT6); test: Patch-clamp whole-cell recording of hypotonicity-activated VRAC/LRRC8 chloride current (ICl,swell); format: cell-based; conditions: for Inhibition at 10 μM (%) of chloride conductance / inhibition at 10 µM: 10 μM inhibitor, -100 mV; for Effect on hypotonic-activated Cl- currents at 20 μM / inhibition at 20 µM: 20 μM inhibitor; for inhibition at 10 µM: read-out: Inhibition at 10 μM (%) of chloride conductance; for Hill coefficient (chloride conductance): WT HEK-293, fitted concentration-response curve at -100 mV; for IC50: read-out: IC50 (chloride conductance)
T1 construct: tested in wild-type HEK-293 cells expressing LRRC8 proteins; endogenous in cells; host or cells: wild-type HEK-293 cells
T1 sequence (Q8IWT6 1-810): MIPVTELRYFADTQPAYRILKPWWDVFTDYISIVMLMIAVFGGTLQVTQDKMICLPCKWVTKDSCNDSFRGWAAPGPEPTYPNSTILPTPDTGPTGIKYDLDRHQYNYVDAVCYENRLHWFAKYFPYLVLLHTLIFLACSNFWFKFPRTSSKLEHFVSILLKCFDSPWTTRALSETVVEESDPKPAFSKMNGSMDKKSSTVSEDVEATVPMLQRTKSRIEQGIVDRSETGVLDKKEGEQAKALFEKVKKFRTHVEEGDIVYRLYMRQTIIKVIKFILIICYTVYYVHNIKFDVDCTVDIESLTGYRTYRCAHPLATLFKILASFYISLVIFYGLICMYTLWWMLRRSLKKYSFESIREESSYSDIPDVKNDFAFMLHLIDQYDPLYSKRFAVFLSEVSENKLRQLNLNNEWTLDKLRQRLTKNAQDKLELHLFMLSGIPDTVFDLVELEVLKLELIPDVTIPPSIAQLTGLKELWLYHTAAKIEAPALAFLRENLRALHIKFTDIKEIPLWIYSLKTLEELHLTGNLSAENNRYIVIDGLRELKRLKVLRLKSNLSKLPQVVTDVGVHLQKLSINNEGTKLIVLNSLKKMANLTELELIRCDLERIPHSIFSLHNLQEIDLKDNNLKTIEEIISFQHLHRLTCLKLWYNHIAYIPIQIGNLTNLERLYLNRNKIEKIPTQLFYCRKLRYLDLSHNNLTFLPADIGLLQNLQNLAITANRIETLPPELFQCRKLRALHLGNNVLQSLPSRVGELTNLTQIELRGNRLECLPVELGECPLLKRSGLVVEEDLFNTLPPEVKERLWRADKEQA
T1 sequence (Q7L1W4 1-858 partner): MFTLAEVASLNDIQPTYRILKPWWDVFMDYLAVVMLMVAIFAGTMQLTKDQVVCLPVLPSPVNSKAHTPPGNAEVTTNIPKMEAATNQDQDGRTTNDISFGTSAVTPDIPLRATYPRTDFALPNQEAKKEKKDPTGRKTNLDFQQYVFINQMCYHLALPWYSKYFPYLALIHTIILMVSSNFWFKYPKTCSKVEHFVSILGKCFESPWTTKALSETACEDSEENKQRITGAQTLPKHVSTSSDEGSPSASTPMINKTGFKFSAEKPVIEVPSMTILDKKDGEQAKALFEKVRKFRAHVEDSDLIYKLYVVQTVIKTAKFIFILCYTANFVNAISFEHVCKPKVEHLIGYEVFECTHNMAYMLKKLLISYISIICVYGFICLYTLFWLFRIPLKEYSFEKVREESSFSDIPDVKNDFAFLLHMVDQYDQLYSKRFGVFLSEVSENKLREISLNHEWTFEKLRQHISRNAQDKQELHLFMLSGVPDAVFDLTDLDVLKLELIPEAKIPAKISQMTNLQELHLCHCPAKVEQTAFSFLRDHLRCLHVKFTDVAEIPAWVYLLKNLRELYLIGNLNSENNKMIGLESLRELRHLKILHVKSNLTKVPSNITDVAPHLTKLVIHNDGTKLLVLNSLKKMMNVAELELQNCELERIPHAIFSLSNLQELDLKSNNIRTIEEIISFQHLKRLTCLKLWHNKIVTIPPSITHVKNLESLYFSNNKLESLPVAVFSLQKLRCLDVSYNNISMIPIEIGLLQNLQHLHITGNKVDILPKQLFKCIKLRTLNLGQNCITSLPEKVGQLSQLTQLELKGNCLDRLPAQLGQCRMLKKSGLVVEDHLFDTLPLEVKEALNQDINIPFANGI
Experimental: The ruptured-whole-cell configuration of the patch-clamp technique was used to measure the activation of VRAC conductance during hypotonic experimental conditions. Cell currents and cell capacitances were recorded using an EPC 10 amplifier [HEKA Elektronik, Lambrecht (Pfalz), Germany]. The membrane potential of the cells was held at -50 mV, and 400-ms pulses from -100 to +100 mV were applied in 20-mV increments. The I/V relationships were expressed as the mean current amplitudes measured at all potentials at 6–10 ms after the pulse onset.
The pipette solution contained (in mM) 140 NMDGCl, 10 HEPES (pH 7.4, HCl), 5 EGTA and 5 MgATP (290 mOsm.l^-1). The normal NMDGCl bath solution contained (in mM) 140 NMDGCl, 10 HEPES (pH 7.4, HCl), 1 CaCl2, 1 MgCl2, and ∼70 mannitol (340 mOsm.l^-1). This solution was designed to prevent the spontaneous activation of VRAC currents. Hypo-osmotic NMDGCl solution (270 mOsm.l^-1) was obtained by removing the mannitol from the NMDGCl bath solution.
Patch-clamp whole-cell recordings were performed in iso-osmotic bath solution (control condition), and the solution was rapidly exchanged to the hypo-osmotic solution. The hypotonic condition was maintained until the LRRC8/VRAC current had stabilized at its maximal value (3–6 min). The percent inhibition at each concentration of inhibitor was calculated at -100 mV holding potentials after at least 2 min of constant perfusion.
Concentration-response curves, IC50 and Hill slope were fitted and determined using the following equations:
Span=Top−Bottom y=Bottom+(Top−Bottom)/1+10^(LogIC50−x)^*Hill Slope

HEK-293 WT cells = test: Regulatory volume decrease (RVD) after hypotonic challenge, calcein fluorescence self-quenching; format: cell-based, human; conditions: for RVD inhibition at 10 μM (%) / inhibition at 10 µM: 10 μM inhibitor, after 30 min; for Effect on RVD at 30 μM: 30 μM inhibitor; for inhibition at 10 µM: Homo sapiens, HEK293, 0.5 h
Experimental: Measurements of changes in cell volume were performed using the calcein fluorescence self-quenching method. Briefly, calcein at high concentrations undergoes spontaneous self-quenching, and its fluorescence intensity decreases with increasing calcein concentration ([Capó-Aponte et al., 2005]). The variation in the fluorescence due to self-quenching indirectly reflects the volume of the cell.
HEK-293 WT and HEK-293 LRRC8-KO cells were cultured on polylysine-coated 24-well plates for 2 days. The cells were then loaded for 40 min with a solution containing 10 μM calcein-AM (Sigma–Aldrich) and washed 3 times with 1 ml of isotonic medium containing (in mM) 145 NaCl, 5 KCl, 1 MgCl2, 1 CaCl2, 10 glucose, and 10 HEPES pH 7.4 (300 mOsm.l^-1). Under this control experimental condition, basal fluorescence was measured every 90 s for 10 min using a plate reader (Ex: 460 nm, Em: 520 nm; Synergy HT, Biotek). After the baseline recording period (10 min), the medium was exchanged and replaced with iso- or hypo-osmotic bath solution adjusted to 200, 150, or 100 mOsm.l^-1. The change in fluorescence induced by replacement of the medium was then recorded over the following 50 min. The experiments were performed under control conditions and in the presence of various concentrations of inhibitors. The percent inhibition resulting from exposure of the cells to solutions containing a concentration of 10 μM for each inhibitor was calculated after maintaining the cells in hypotonic bath solution in the presence of the inhibitor for 30 min.

CFTR = conditions: cited from earlier work
CaCC = system: CaCC; design: method as in Namkung et al. (2013); conditions: ref Namkung et al. (2013); cited from earlier work
[1] = system: other chloride channels (CFTR, CaCC, ClC); design: method as in Decher et al. (2001); conditions: 10 μM; ref Decher et al. (2001); cited from earlier work
ICl,swell = system: ICl,swell; design: method as in Decher et al. (2001); conditions: ref Decher et al. (2001); cited from earlier work
[2] = whole-cell, WT HEK-293, hypotonic solution 270 mOsm.l^-1, calculated at -100 mV
[3] = 100 mOsm.l^-1 hypotonic challenge
[4] = 100 mOsm.l^-1 hypotonic challenge, 10 µM

O=C(O)c1ccc(/C=C2\SC(=S)N(c3cccc(C(F)(F)F)c3)C2=O)cc1 [CFTRinh-172]
Inhibition at 10 μM (%) of chloride conductance (LRRC8/VRAC; whole-cell): No effect | Effect on hypotonic-activated Cl- currents at 20 μM (LRRC8/VRAC; whole-cell): minor effect | Effect on hypotonic-activated Cl- currents at up to 10 μM (LRRC8/VRAC; concentrations of up to 10 μM, whole-cell): almost no effect | Effect on VRAC current at up to 20 μM (LRRC8/VRAC; concentrations of up to 20 μM): no significant effect | IC50 (chloride conductance) (LRRC8/VRAC; [2]): No effect | RVD inhibition at 10 μM (%) (HEK-293 WT cells; [3]): No effect | Effect on RVD at up to 20 μM (HEK-293 WT cells; concentrations of up to 20 μM): no significant effect | Effect on RVD at doses lower than 30 μM (HEK-293 WT cells; lower doses than 30 μM): ineffective | IC50 (CFTR; ref Ma et al., 2002, read-out: IC50 (CFTR)): 0.3 µM

Cc1ccc(C2Nc3ccccc3-n3c(-c4ccccc4)c4c(=O)n(C)c(=O)n(C)c4c32)o1 (stereo not shown) [PPQ-102]
Effect on ICl,swell at 1 μM (LRRC8/VRAC; 1 μM inhibitor, whole-cell): ineffective | inhibition at 10 µM (LRRC8/VRAC; whole-cell): 18.3 ± 11.3% | inhibition at 30 µM (LRRC8/VRAC; 30 μM inhibitor, whole-cell): > 85% | Hill coefficient (chloride conductance) (LRRC8/VRAC; whole-cell): 2.2 ± 1.2 | IC50 (LRRC8/VRAC; [2]): 20 µM and 19.6 µM | RVD inhibition at 10 μM (%) (HEK-293 WT cells; [4]): 29.8 ± 5.9% | Effect on RVD at 30 μM (HEK-293 WT cells; [3]): fully inhibited RVD | inhibition at 10 µM (HEK-293 WT cells; [3]): 30 ± 6% | IC50 (CFTR; ref Tradtrantip et al., 2009, read-out: IC50 (CFTR)): < 0.1 µM

CCc1c(C)nc(SCC(=O)Nc2nc(-c3ccc(OC)cc3)cs2)[nH]c1=O [T16Ainh-A01]
inhibition at 3 µM (LRRC8/VRAC; 3 μM inhibitor, whole-cell, read-out: Inhibition of hypotonically activated Cl- current at 3 μM): 23 ± 5% | inhibition at 10 µM (LRRC8/VRAC; whole-cell): 58.4 ± 2% | Hill coefficient (chloride conductance) (LRRC8/VRAC; whole-cell): 1.5 ± 0.6 | IC50 (LRRC8/VRAC; [2]): 6 µM and 5.5 µM | RVD inhibition at 10 μM (%) (HEK-293 WT cells; [4]): 39.8 ± 9.6% | Effect on RVD at 30 μM (HEK-293 WT cells; [3]): maximal effect | inhibition at 10 µM (HEK-293 WT cells; [3]): 40 ± 10% | IC50 (CaCC): 1 µM

CCCCC1(C2CCCC2)Cc2cc(OCCCC(=O)O)c(Cl)c(Cl)c2C1=O (stereo not shown) [DCPIB, 4-(2-butyl-6,7-dichlor-2-cyclopentyl-indan-1-on-5-yl) oxybutyric acid]
inhibition at 10 µM (LRRC8/VRAC; whole-cell): 82.7 ± 3.2% | Effect on hypotonic-activated Cl- currents at 20 μM (LRRC8/VRAC; whole-cell): full blockade | inhibition at 20 µM (LRRC8/VRAC; whole-cell): > 90% | Hill coefficient (chloride conductance) (LRRC8/VRAC; whole-cell): 2.9 ± 1.1 | IC50 (LRRC8/VRAC; [2]): 5 µM and 4.8 µM | Effect on other chloride channels (CFTR, CaCC, ClC) [1]: without any effect | RVD inhibition at 10 μM (%) (HEK-293 WT cells; [4]): 35.8 ± 3.1% | Effect on RVD at 20 μM (HEK-293 WT cells; 20 μM inhibitor, 100 mOsm.l^-1 hypotonic challenge): maximal effect; also recorded: completely impaired volume regulation | inhibition at 10 µM (HEK-293 WT cells; [3]): 36 ± 3% | Block of ICl,swell at 10 μM (ICl,swell): more than 80%

O=C(CNc1ccc2ccccc2c1)N/N=C/c1cc(Br)c(O)c(Br)c1O [GlyH-101]
inhibition at 10 µM (LRRC8/VRAC; whole-cell): 46.6 ± 8.8% | inhibition at 20 µM (LRRC8/VRAC; whole-cell): > 85% | Hill coefficient (chloride conductance) (LRRC8/VRAC; whole-cell): 0.9 ± 0.4 | IC50 (LRRC8/VRAC; [2]): 10 µM and 9.5 µM | IC50 (CFTR; ref Muanprasat et al., 2004, read-out: IC50 for CFTR): ~5 µM

O=C(O)c1cccnc1Nc1cccc(C(F)(F)F)c1 [NFA, niflumic acid]
Inhibition at 10 μM (%) of chloride conductance (LRRC8/VRAC; whole-cell, 10 µM): 22.5 ± 4.0% | inhibition at 10 µM (LRRC8/VRAC; whole-cell): 23 ± 4% | Effect on hypotonically activated Cl- current at 100 μM (LRRC8/VRAC; 100 μM inhibitor, whole-cell): maximal inhibitory effect | Hill coefficient (chloride conductance) (LRRC8/VRAC; whole-cell): 0.8 ± 0.4 | IC50 (LRRC8/VRAC; [2]): 55 µM and 55.2 µM | RVD inhibition at 10 μM (%) (HEK-293 WT cells; [4]): 19.9 ± 7.2% | Effect on RVD at 30 μM (HEK-293 WT cells; [3]): maximally inhibited the RVD process | inhibition at 10 µM (HEK-293 WT cells; [3]): 20 ± 7%
